From ChEMBL document CHEMBL3792363, “2,6-Bis(benzimidazol-2-yl)pyridine as a potent transmembrane anion transporter” (Bioorg Med Chem Lett, 2016) come the findings set out here.

A short description of data set [1]: Ionophoric activity assessed as induction of chloride influx into EYPC based liposomal membranes at 15% measured within 5 mins by lucigenin based fluorescence assay. The settings on record: artificial membrane.
The nature of data set [2]: Ionophoric activity assessed as induction of pH discharge across EYPC based liposomal membranes at 5% by pyranine based fluorescence assay. The settings on record: artificial membrane.
Data set [3] is described as follows: Binding affinity to iodide anion assessed as association constant by spectrometric titration method.
Data set [4] is described as follows: Ionophoric activity assessed as induction of pH discharge across EYPC based liposomal membranes using chloride salt of Cs+ ions at 3% by pyranine based fluorescence assay. The settings on record: artificial membrane.
Data set [5] in a line: Binding affinity to bromide anion assessed as association constant by spectrometric titration method relative to Me2bimpy.
A short description of data set [6]: Ionophoric activity assessed as induction of pH discharge across EYPC based liposomal membranes using chloride salt of K+ ions at 3% by pyranine based fluorescence assay. The settings on record: artificial membrane.
A short description of data set [7]: Binding affinity to nitrate anion assessed as association constant by spectrometric titration method.
Data set [8] can be described thus: Ionophoric activity assessed as induction of chloride influx into EYPC based liposomal membranes at 5% measured within 5 mins by lucigenin based fluorescence assay. The settings on record: artificial membrane.
Data set [9] is described as follows: Ionophoric activity assessed as induction of chloride influx into EYPC based liposomal membranes at 1 to 5% in presence of intravesicular NaNO3 by lucigenin based fluorescence assay. The settings on record: artificial membrane.
The nature of data set [10]: Ionophoric activity assessed as induction of pH discharge across POPC based liposomal membranes at 1 to 5% by pyranine based fluorescence assay. The settings on record: artificial membrane.
Data set [11] is described as follows: Ionophoric activity assessed as induction of pH discharge across EYPC based liposomal membranes using chloride salt of Li+ ions at 3% by pyranine based fluorescence assay. The settings on record: artificial membrane.
Data set [12] is described as follows: Binding affinity to nitrate anion assessed as association constant by spectrometric titration method relative to Me2bimpy.
A short description of data set [13]: Ionophoric activity assessed as induction of chloride influx into EYPC based liposomal membranes at 1 to 5% in presence of intravesicular and extravesicular by lucigenin based fluorescence assay. The settings on record: artificial membrane.
Data set [14] is described as follows: Binding affinity to iodide anion assessed as association constant by spectrometric titration method relative to Me2bimpy.
A short description of data set [15]: Binding affinity to bromide anion assessed as association constant by spectrometric titration method.
Data set [16] is described as follows: Binding affinity to chloride anion assessed as association constant by spectrometric titration method relative to Me2bimpy.
Data set [17] can be described thus: Ionophoric activity assessed as induction of pH discharge across POPC/cholesterol (30%) based liposomal membranes at 1 to 5% by pyranine based fluorescence assay. The settings on record: artificial membrane.
The nature of data set [18]: Ionophoric activity assessed as induction of pH discharge across EYPC based liposomal membranes at 1 to 5% by pyranine based fluorescence assay. The settings on record: artificial membrane.
Data set [19] can be described thus: Binding affinity to chloride anion assessed as association constant by spectrometric titration method.
Data set [20] in a line: Ionophoric activity assessed as induction of chloride influx into EYPC based liposomal membranes at 1 to 5% in presence of intravesicular Na2SO4 by lucigenin based fluorescence assay. The settings on record: artificial membrane.
Data set [21] in a line: Ionophoric activity assessed as induction of pH discharge across EYPC based liposomal membranes using chloride salt of Rb+ ions at 3% by pyranine based fluorescence assay. The settings on record: artificial membrane.
Data set [22] in a line: Ionophoric activity assessed as induction of pH discharge across EYPC based liposomal membranes using chloride salt of Na+ ions at 3% by pyranine based fluorescence assay. The settings on record: artificial membrane.

For the compound `CCCCCCCCCCCCNC(=O)[C@@H](C(C)C)n1cc[n+](Cc2cccc(C[n+]3ccn([C@@H](C(=O)NCCCCCCCCCCCC)C(C)C)c3)c2)c1.O=S(=O)([N-]S(=O)(=O)C(F)(F)F)C(F)(F)F.O=S(=O)([N-]S(=O)(=O)C(F)(F)F)C(F)(F)F`, the Activity in data set [1] is listed as 35%.

For `c1cc(-c2nc3ccccc3[nH]2)cc(-c2nc3ccccc3[nH]2)c1`, the result in data set [2] was Active.

As to `c1cc(-c2nc3ccccc3[nH]2)nc(-c2nc3ccccc3[nH]2)c1`, the Ka in data set [3] was 1.57 ×10³ /M; in data set [7] it was 4.9 ×10³ /M; in [15] it was 3.04 ×10³ /M; in data set [19] it was 8.71 ×10³ /M. In addition, the Activity entry in data set [4] is on record as “Active”; in data set [6], “Active”; in data set [8], 35%; in data set [9], “Active”; in [10], “Not Active”; in data set [11], “Active”. Also, the Activity entry in [13] is “Active”; in [17], “Not Active”; in data set [18], “Active”; in data set [20], “Active”; in [21], “Active”; in data set [22], “Active”. For the same compound, the fold change (FC) in [5] was found to be 6; in data set [12] it was 6.8; in data set [14], 2.2; in [16], 22.

Regarding `CC(C)[C@H](C(=O)NCc1ccccc1)n1cc[n+](Cc2cccc(C[n+]3ccn([C@@H](C(=O)NCc4ccccc4)C(C)C)c3)c2)c1.O=S(=O)([N-]S(=O)(=O)C(F)(F)F)C(F)(F)F.O=S(=O)([N-]S(=O)(=O)C(F)(F)F)C(F)(F)F`, the Activity in data set [1] turned out to be 35%.

Regarding `O=C(NCc1ccccc1)[C@@H](Cc1ccccc1)n1cc[n+](Cc2cccc(C[n+]3ccn([C@H](Cc4ccccc4)C(=O)NCc4ccccc4)c3)c2)c1.O=S(=O)([N-]S(=O)(=O)C(F)(F)F)C(F)(F)F.O=S(=O)([N-]S(=O)(=O)C(F)(F)F)C(F)(F)F`, the Activity in [1] is listed as 35%.

As to `Cn1c(-c2cccc(-c3nc4ccccc4n3C)n2)nc2ccccc21`, the Ka was 7.07 ×10² /M in data set [3], 7.23 ×10² /M in [7], 5.03 ×10² /M in [15] and 4 ×10² /M in data set [19]. In addition, the Activity entry in data set [9] and in [18] was “Not Active” each time.
